Laboratory results published in patent US20200109126A1 (priority 2017, published 2020).
Read-outs that look alike come from different tables or passages of the source.

How the values were obtained:
κOR = molecular target: T1, κOR (Homo sapiens, UniProt P41145); assay: Radioligand binding at κOR (PDSP); conditions: for Ki: analogs, full dose-response
T1 construct: NIMH Psychoactive Drug Screening Program (PDSP)

μOR [1] = molecular target: T2, μOR (Homo sapiens, UniProt P35372); assay: cell-based; type: cell-based
μOR [2] = molecular target: T2, μOR; assay: biochemical; type: binding; set-up: expressed in transfected cells; host or cells: HEK293 membranes (Ki); Sf9 insect cell membranes (single-point screen); PDSP for analogs
Method: For a primary screen of selected molecules, binding to OR was assessed by measuring competition against the radioligand ^3H-diprenorphine (^3H-DPN). […] The reaction contained 40 fmol of μOR and was incubated in a buffer of 20 mM HEPES pH 7.5, 100 mM sodium chloride, and 0.1% bovine serum albumin for 1 hour at 25° C. To separate free from bound radioligand, reactions were rapidly filtered over Whatman GF/B filters with the aid of a Brandel harvester and ^3H-DPN counts were measured by liquid scintillation.

MM1 (MOR N127C) = molecular target: T3, MM1 (MOR N127C) (Homo sapiens, UniProt P35372, N129C); assay: Receptor binding at MM1 (MOR N127C); conditions: (n) = number of independent experiments; read-out: binding affinity Ki MM1 (MOR N127C)
T3 construct: expressed in transfected cells; host or cells: HEK 293

humanDOR = humanDOR (Homo sapiens, UniProt P41143); assay: Receptor binding with [3H]diprenorphine at human DOR
hMOR [3] = molecular target: T4, hMOR (Homo sapiens, UniProt P35372); assay: Receptor binding with [3H]diprenorphine at hMOR
hKOR [4] = molecular target: T5, hKOR (Homo sapiens, UniProt P41145); assay: Receptor binding with [3H]diprenorphine at hKOR
hDOR = hDOR (Homo sapiens, UniProt P41143); assay: Radioligand binding studies (Example 6) at hDOR
Method: (§1) For a primary screen of selected molecules, binding to μOR was assessed by measuring competition against the radioligand ^3H-diprenorphine (^3H-DPN). […] The reaction contained 40 fmol of μOR and was incubated in a buffer of 20 mM HEPES pH 7.5, 100 mM sodium chloride, and 0.1% bovine serum albumin for 1 hour at 25° C. To separate free from bound radioligand, reactions were rapidly filtered over Whatman GF/B filters with the aid of a Brandel harvester and ^3H-DPN counts were measured by liquid scintillation. […] Subsequently, the 8 compounds were tested in full dose-response for affinity at the μOR and the κOR by the National Institutes of Mental Health Psychoactive Drug Screen Program (PDSP), as were the affinities of the compounds at the μOR, δOR, κOR, and the nociception receptor.

hMOR [5] = molecular target: T4, hMOR; assay: Radioligand binding studies (Example 6) at hMOR
Method: as §1

hKOR [6] = molecular target: T5, hKOR; assay: Radioligand binding studies (Example 6) at hKOR
Method: as §1

μOR [7] = molecular target: T2, μOR; assay: β-arrestin recruitment at μOR with GRK2 co-expression; type: cell-based; conditions: for EC50: read-out: Arrestin + GRK2 EC50
μOR [8] = molecular target: T2, μOR; assay: β-arrestin recruitment at μOR without GRK2; type: cell-based
[9] = PZM analogs, (n) = number of independent experiments, read-out: binding affinity Ki hDOR
[10] = PZM analogs, (n) = number of independent experiments, read-out: binding affinity Ki hMOR
[11] = PZM analogs, (n) = number of independent experiments, read-out: binding affinity Ki hKOR
[12] = molecules identified in the initial screen, read-out: μOR Ki
[13] = ± SD (two experiments) or SEM, (n) experiments, read-out: humanDOR [3H]dyprenorphine Ki
[14] = ± SD (two experiments) or SEM, (n) experiments, read-out: hMOR [3H]dyprenorphine Ki
[15] = ± SD (two experiments) or SEM, (n) experiments, read-out: hKOR [3H]dyprenorphine Ki

T1 sequence (P41145 whole entry): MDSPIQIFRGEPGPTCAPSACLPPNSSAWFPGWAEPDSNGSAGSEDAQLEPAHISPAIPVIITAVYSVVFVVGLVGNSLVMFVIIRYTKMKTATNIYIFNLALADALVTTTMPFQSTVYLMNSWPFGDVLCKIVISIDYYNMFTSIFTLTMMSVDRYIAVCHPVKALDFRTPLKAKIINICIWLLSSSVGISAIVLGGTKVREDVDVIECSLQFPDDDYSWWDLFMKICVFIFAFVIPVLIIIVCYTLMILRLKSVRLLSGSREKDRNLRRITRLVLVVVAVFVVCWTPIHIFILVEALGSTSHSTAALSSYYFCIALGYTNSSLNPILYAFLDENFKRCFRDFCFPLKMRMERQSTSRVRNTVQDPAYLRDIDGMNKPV
T5 sequence (P41145 whole entry): as above
hDOR, sequence (P41143 whole entry): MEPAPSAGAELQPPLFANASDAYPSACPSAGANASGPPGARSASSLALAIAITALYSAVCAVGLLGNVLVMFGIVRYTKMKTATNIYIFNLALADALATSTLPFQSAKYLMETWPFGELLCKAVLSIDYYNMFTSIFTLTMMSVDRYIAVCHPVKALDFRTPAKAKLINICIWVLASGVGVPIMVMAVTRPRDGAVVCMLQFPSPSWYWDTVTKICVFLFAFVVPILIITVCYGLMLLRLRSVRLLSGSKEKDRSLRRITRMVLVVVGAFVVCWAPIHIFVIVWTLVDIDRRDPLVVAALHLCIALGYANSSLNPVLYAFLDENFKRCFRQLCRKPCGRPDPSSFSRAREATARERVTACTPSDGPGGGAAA
humanDOR, sequence (P41143 whole entry): as above
T3 sequence (P35372 whole entry N129C): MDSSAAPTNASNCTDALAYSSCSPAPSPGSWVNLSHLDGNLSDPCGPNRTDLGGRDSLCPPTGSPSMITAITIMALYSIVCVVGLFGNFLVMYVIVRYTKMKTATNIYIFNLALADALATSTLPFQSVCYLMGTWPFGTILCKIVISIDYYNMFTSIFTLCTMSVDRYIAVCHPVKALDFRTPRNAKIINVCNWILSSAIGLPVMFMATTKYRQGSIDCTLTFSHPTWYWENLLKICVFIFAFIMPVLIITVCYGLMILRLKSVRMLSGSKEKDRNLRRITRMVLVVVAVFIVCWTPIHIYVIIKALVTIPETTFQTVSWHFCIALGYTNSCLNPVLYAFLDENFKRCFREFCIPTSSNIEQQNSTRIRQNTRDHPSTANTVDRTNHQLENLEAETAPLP
T2 sequence (P35372 whole entry): as the sequence (P35372 whole entry N129C) above, with C129N counted along it
T4 sequence (P35372 whole entry): as the sequence (P35372 whole entry N129C) above, with C129N counted along it

CC(C)[C@H](CNC(=O)c1ccc([N+](=O)[O-])s1)N1CCc2ccccc2C1 [compound 8]
Ki (κOR; read-out: κOR Ki): 0.46 µM
EC50 (μOR [1]; ND = not detectable under these experimental conditions, read-out: μOR Gi EC50): 6.6 µM
Ki (μOR [2]; analogs, full dose-response, read-out: μOR Ki): 820 nM

CN(C)[C@H](CNC(=O)NCCCN1C(=O)C=CC1=O)Cc1ccc(O)cc1
Ki (MM1 (MOR N127C)): 4.7 nM
Ki (humanDOR; [9]): 3100 nM
Ki (hMOR [3]; [10]): 380 nM
Ki (hKOR [4]; [11]): 450 nM

O=C(Cc1cn2ccccc2n1)NCC1(c2ccccc2)CCC1 [compound 9]
Ki (κOR; κOR Ki (μM)): 1.36 µM
μOR Ki column, given as percentage (μOR [2]; <50% instead of a Ki): <50%

CN(C)[C@H](CNC(=O)NCc1cccc([N+](=O)[O-])c1)Cc1ccccc1 [compound 14]
Ki (κOR; κOR Ki (μM)): 0.51 µM
EC50 (μOR [1]; μOR Gi EC50 (μM), ND = not detectable under these experimental conditions): 0.44 µM
Ki (μOR [2]): 87 nM

CN(C)[C@H](CNC(=O)Cc1cn2ccccc2n1)Cc1ccccc1 [compound 2]
Ki (μOR [2]; [12]): 5800 nM

CN[C@H](CNC(=O)NCCc1ccc(F)cc1OC)Cc1ccc(O)cc1 [DD229, (5)-1-(4-fluoro-2-methoxyphenethyl)-3-(3-(4-hydroxyphenyl)-2-(methylamino)propyl)urea]
Ki (hDOR; read-out: Binding affinities hDOR [3H]dyprenorph): 480 nM
Ki (hMOR [5]; read-out: Binding affinities hMOR [3H]dyprenorph): 130 nM
Ki (hKOR [6]; read-out: Binding affinities hKOR [3H]dyprenorph): 320 nM

C[C@H](CN1C(=O)C=CC1=O)NC(=O)NC[C@H](Cc1ccc(O)cc1)N(C)C
Ki (MM1 (MOR N127C)): 0.13 nM
Ki (humanDOR; [9]): 210 nM
Ki (hMOR [3]; [10]): 90 nM
Ki (hKOR [4]; [11]): 690 nM

CC(=O)Oc1ccc(C[C@@H](CNC(=O)N[C@@H](C)Cc2ccsc2)N(C)C)cc1 [DD230, 4-((S)-2-(dimethylamino)-3-(3-((S)-1-(thiophen-3-yl)propan-2-yl)ureido)propyl)phenyl acetate]
Ki (hDOR): 920 nM
Ki (hMOR [5]): 240 nM
Ki (hKOR [6]): 250 nM

Cc1nc(CNC(=O)NC[C@@H](Cc2ccccc2)N(C)C)sc1C [compound 15]
κOR Ki, given as percentage (κOR; <50% instead of a Ki): <50%
Ki (μOR [2]): 130 nM

C[C@H](NC(=O)NC[C@H](Cc1ccc(O)cc1)N(C)C)c1ccccc1 [DD 53LS, 1-((S)-2-(dimethylamino)-3-(4-hydroxyphenyl)propyl)-3-((S)-1-phenylethyl)urea]
Arrestin + GRK2 Emax % DAMGO (μOR [7]): 33 % DAMGO
EC50 (μOR [7]): 87.4 nM
Gi/o Emax % DAMGO (μOR [1]): 63 % DAMGO
EC50 (μOR [1]; Gi/o EC50 nM): 0.00308 µM
Ki (humanDOR; [13]): 180 nM
Ki (hMOR [3]; [14]): 28 nM
Arrestin Emax % DAMGO (μOR [8]): 5 % DAMGO
EC50 (μOR [8]; read-out: Arrestin EC50): 67.9 nM
Ki (hKOR [4]; [15]): 22 nM

Cc1ccc2[nH]c(=O)c(CN3CCN[C@@H](c4ccccc4)C3)cc2c1 [compound 5]
Ki (μOR [2]; [12]): 4700 nM

CN(C)[C@H](CNC(=O)NCCc1cn(CCSSCCN=[N+]=[N-])nn1)Cc1ccc(O)cc1 [drawing 545]
Ki (MM1 (MOR N127C)): 34 nM
Ki (humanDOR; [9]): 3900 nM
Ki (hMOR [3]; [10]): 420 nM
Ki (hKOR [4]; [11]): 1500 nM

CN(C)[C@H](CNC(=O)NC(C)(C)Cc1ccccc1)Cc1ccc(O)cc1 [DD 33L, (S)-1-(2-(dimethylamino)-3-(4-hydroxyphenyl)propyl)-3-(2-methyl-1-phenylpropan-2-yl)urea]
Arrestin + GRK2 Emax % DAMGO (μOR [7]): 14 % DAMGO
EC50 (μOR [7]): 134 nM
Gi/o Emax % DAMGO (μOR [1]): 61 % DAMGO
EC50 (μOR [1]; Gi/o EC50 nM): 0.0981 µM
EC50 (μOR [1]; Gi/o pEC50): 0.0982 µM
Ki (humanDOR; [13]): 920 nM
Ki (hMOR [3]; [14]): 46 nM
Arrestin EC50 nM (μOR [8]): No Activity
Arrestin Emax % DAMGO (μOR [8]): No Activity
Ki (hKOR [4]; [15]): 91 nM

CN(C)[C@H](CNC(=O)NCCc1ccsc1)Cc1ccc(O)cc1 [DD 16, (S)-1-(2-(dimethylamino)-3-(4-hydroxyphenyl)propyl)-3-(2-(thiophen-3-yl)ethyl)urea]
Arrestin + GRK2 Emax % DAMGO (μOR [7]): 33 % DAMGO
EC50 (μOR [7]): 144 nM
Gi/o Emax % DAMGO (μOR [1]): 60 % DAMGO
EC50 (μOR [1]; Gi/o EC50 nM): 0.00755 µM
Ki (humanDOR; [13]): 330 nM
Ki (hMOR [3]; [14]): 43 nM
Arrestin Emax % DAMGO (μOR [8]): 5 % DAMGO
EC50 (μOR [8]; read-out: Arrestin pEC50 (converted)): 410 nM
Ki (hKOR [4]; [15]): 150 nM

Cc1cc(O)cc(C)c1C[C@@H](CNC(=O)NCCN1C(=O)C=CC1=O)N(C)C
Ki (MM1 (MOR N127C)): 0.93 nM
Ki (humanDOR; [9]): 150 nM
Ki (hMOR [3]; [10]): 18 nM
Ki (hKOR [4]; [11]): 200 nM

COc1cc(F)ccc1CCNC(=O)NC[C@H](Cc1ccc(O)cc1)N(C)C [DD214, (S)-1-(2-(dimethylamino)-3-(4-hydroxyphenyl)propyl)-3-(4-fluoro-2-methoxyphenethyl)urea]
Ki (hDOR): 390 nM
Ki (hMOR [5]): 42 nM
Ki (hKOR [6]): 170 nM

CN(C)[C@H](CNc1c(NCCc2ccccc2)c(=O)c1=O)Cc1ccc(O)cc1 [DD247, (S)-3-((2-(dimethylamino)-3-(4-hydroxyphenyl)propyl)amino)-4-(phenethylamino)cyclobut-3-ene-1,2-dione]
Ki (hDOR): 2900 nM
Ki (hMOR [5]): 320 nM
Ki (hKOR [6]): 310 nM
